Among the data in patent US12459899B2, “Isoquinolinone derivatives, method for preparing the same, and pharmaceutical composition for preventing or treating poly(ADP-ribose) polymerase-1-related diseases, comprising the same as active ingredient” (DIGMBIO. INC., priority 2019, dated 2025) are inhibition and IC50 values, retold here.

The first experiment deals with PARP-1 (poly[ADP-ribose] polymerase 1) enzyme (Homo sapiens (Human), UniProt P09874). Kind of experiment: PARP-1 (poly[ADP-ribose] polymerase 1) enzyme inhibitory ability, Trevigen assay kit. In kind it is biochemical. The following applies: 1 nM (Table 2); read-out: inhibited PARP-1 enzyme activity. As to the method: In order to evaluate the PARP-1 (poly[ADP-ribose] polymerase 1) enzyme inhibitory ability of the compounds according to the present invention, an experiment was conducted as follows.
Sequence of PARP-1 (poly[ADP-ribose] polymerase 1) enzyme (P09874 whole entry): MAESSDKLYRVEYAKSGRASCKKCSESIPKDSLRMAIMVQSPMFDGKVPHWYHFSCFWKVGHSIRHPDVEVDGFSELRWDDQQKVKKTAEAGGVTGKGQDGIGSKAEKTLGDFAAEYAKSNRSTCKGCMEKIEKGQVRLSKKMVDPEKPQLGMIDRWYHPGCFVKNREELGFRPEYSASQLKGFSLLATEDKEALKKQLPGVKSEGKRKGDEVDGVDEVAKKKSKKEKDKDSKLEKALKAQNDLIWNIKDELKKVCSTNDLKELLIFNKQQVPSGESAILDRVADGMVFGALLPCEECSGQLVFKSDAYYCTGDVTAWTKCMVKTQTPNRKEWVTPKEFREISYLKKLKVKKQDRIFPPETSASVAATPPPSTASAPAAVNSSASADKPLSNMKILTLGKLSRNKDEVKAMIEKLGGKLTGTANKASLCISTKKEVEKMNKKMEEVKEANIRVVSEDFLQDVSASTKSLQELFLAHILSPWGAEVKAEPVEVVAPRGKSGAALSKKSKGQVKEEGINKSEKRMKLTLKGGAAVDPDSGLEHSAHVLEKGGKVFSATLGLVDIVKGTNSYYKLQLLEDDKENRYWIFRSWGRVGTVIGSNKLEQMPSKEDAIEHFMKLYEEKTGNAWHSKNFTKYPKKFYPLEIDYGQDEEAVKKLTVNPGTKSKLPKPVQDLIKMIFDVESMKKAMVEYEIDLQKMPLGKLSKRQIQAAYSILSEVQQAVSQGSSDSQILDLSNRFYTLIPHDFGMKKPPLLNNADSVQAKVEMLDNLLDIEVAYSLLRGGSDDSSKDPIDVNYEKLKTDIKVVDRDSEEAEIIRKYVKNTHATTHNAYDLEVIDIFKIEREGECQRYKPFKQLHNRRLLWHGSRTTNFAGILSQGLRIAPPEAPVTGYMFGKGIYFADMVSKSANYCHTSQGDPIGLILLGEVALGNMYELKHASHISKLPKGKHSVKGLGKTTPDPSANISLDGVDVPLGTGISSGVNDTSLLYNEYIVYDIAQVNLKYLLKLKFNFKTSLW
Specifically, in order to evaluate the PARP-1 (poly[ADP-ribose] polymerase 1) enzyme inhibitory ability of the compounds of Examples 1 to 276 according to the present invention, the PARP-1 (poly[ADP-ribose] polymerase 1) activity was investigated in the following manner using an assay kit purchased from Trevigen, Inc. (Catalog number: 4677-096-K). 50 μL of 1×PARP buffer (provided by Trevigen's kit) was dispensed into a 96-well plate coated with histones per each well, and then rehydrated for 30 minutes. After removing the 1×PARP buffer present in the well, PARP-1 (poly[ADP-ribose] polymerase 1) enzyme (0.5 unit/well) and 1 μM concentration or various concentrations of the compounds of Example 1 to 276 were added at room temperature and reacted for 10 minutes. Thereafter, each well was treated with 25 μL of 1×PARP cocktail (biotinylated NAD, activated DNA, provided by Trevigen's kit), and then reacted at room temperature for 1 hour. After the reaction was completed, each well was washed twice with PBS (7.5 mM Na2HPO4, 2.5 mM NaH2PO4, 145 mM NaCl) containing 0.1% triton X-100, and washed twice with PBS. Then, 50 μL of strep-HRP (streptavidin-linked peroxidase) was added and reacted at room temperature for 1 hour, and then washed twice with PBS containing 0.1% triton X-100, and washed twice with PBS. After removing all PBS, 50 μL of TACS-sapphire, a substrate, was added, and reacted at room temperature for 15 minutes while blocking the light. After the reaction was terminated by treatment with 50 μL of 5% phosphoric acid to each well, the absorbance was measured at 450 nm using a microplate reader Victor3 from PerkinElmer, Inc. to quantify the value.
`N#Cc1ccc(C2=CCN(CCCc3cc4ccc(F)cc4c(=O)[nH]3)CC2)cc1` [Example 47, 4-(1-(3-(7-fluoro-1-oxo-1,2-dihydroisoquinolin-3-yl)propyl)-1,2,3,6-tetrahydropyridin-4-yl)benzonitrile]: the inhibition at 0.001 µM was ≥ 80%.

The same experiment, now with this note: 1 nM compound; read-out: PAR P-1 Inhibitory ability at 1 nM.
With `N#Cc1ccc(NC2CCN(C(=O)CCc3cc4cccc(F)c4c(=O)[nH]3)CC2)cn1` [Example 258, 5-((1-(3-(8-fluoro-1-oxo-1,2-dihydroisoquinolin-3-yl)propanoyl)piperidin-4-yl)amino)picolinonitrile], the inhibition at 0.001 µM is < 50%.
On the same count and under the same terms, to `Cc1cc(F)cc2c(=O)[nH]c(CCC(=O)N3C4CCC3CN(c3ccc(C#N)cc3)C4)cc12` [Example 213, 4-(8-(3-(7-fluoro-5-methyl-1-oxo-1,2-dihydroisoquinolin-3-yl)propanoyl)-3,8-diazabicyclo[3.2.1]octan-3-yl)benzonitrile] belongs < 50%; to `Cc1ccc(F)c2c(=O)[nH]c(CCCN3CCN(C(=O)c4cccc(F)c4)CC3)cc12` [Example 65, 8-fluoro-3-(3-(4-(3-fluorobenzoyl)piperazin-1-yl)propyl)-5-methylisoquinolin-1(2H)-one], < 50%; to `Cc1ccc(F)c2c(=O)[nH]c(CCC(=O)N3CCN(c4cc(C#N)ccc4F)CC3)cc12` [Example 133, 4-fluoro-3-(4-(3-(8-fluoro-5-methyl-1-oxo-1,2-dihydroisoquinolin-3-yl)propanoyl)piperazin-1-yl)benzonitrile], < 50%.
`Cc1ccc(F)c2c(=O)[nH]c(CCC(=O)N3CC=C(c4ccc(C#N)cn4)CC3)cc12` [Example 140, 1′-(3-(8-fluoro-5-methyl-1-oxo-1,2-dihydroisoquinolin-3-yl)propanoyl)-1′,2′,3′,6′-tetrahydro-[2,4′-bipyridine]-5-carbonitrile]: the inhibition at 0.001 µM was < 50%.
Regarding `Cc1cc(F)cc2c(=O)[nH]c(CCCN3CCN(c4ccc(C#N)nc4)CC3)cc12` [Example 35, 5-(4-(3-(7-fluoro-5-methyl-1-oxo-1,2-dihydroisoquinolin-3-yl)propyl)piperazin-1-yl)picolinonitrile], the inhibition at 0.001 µM was < 50%.
As for `Cc1ccc(F)c2c(=O)[nH]c(CCC(=O)N3CCN(c4cc(F)ccc4C#N)CC3)cc12` [Example 134, 4-fluoro-2-(4-(3-(8-fluoro-5-methyl-1-oxo-1,2-dihydroisoquinolin-3-yl)propanoyl)piperazin-1-yl)benzonitrile], the inhibition at 0.001 µM is < 50%.
As to `Cc1ccc(F)c2c(=O)[nH]c(CCC(=O)N3CCN(C(=O)C4CC4)CC3)cc12` [Example 183, 3-(3-(4-(cyclopropanecarbonyl)piperazin-1-yl)-3-oxopropyl)-8-fluoro-5-methylisoquinolin-1(2H)-one], the inhibition at 0.001 µM is < 50%.
Turning to `N#Cc1ccc(C2=CCN(CCCc3cc4ccc(F)cc4c(=O)[nH]3)CC2)cc1` [Example 47, 4-(1-(3-(7-fluoro-1-oxo-1,2-dihydroisoquinolin-3-yl)propyl)-1,2,3,6-tetrahydropyridin-4-yl)benzonitrile], the inhibition at 0.001 µM is > 80%.
On the same count and under the same terms, to `Cc1ccc(F)c2c(=O)[nH]c(CCC(=O)N3CC=C(c4ccc(C#N)c(F)c4)CC3)cc12` [Example 141, 2-fluoro-4-(1-(3-(8-fluoro-5-methyl-1-oxo-1,2-dihydroisoquinolin-3-yl)propanoyl)-1,2,3,6-tetrahydropyridin-4-yl)benzonitrile] belongs < 50%; to `Cc1ccc(F)c2c(=O)[nH]c(CCC(=O)N3C4CCC3CN(c3ccc(C#N)cn3)C4)cc12` [Example 207, 6-(8-(3-(8-fluoro-5-methyl-1-oxo-1,2-dihydroisoquinolin-3-yl)propanoyl)-3,8-diazabicyclo[3.2.1]octan-3-yl)nicotinonitrile], < 50%; to `N#Cc1ccc(N2CCN(C(=O)CCc3cc4ccc(F)cc4c(=O)[nH]3)CC2)cc1` [Example 94, 4-(4-(3-(7-fluoro-1-oxo-1,2-dihydroisoquinolin-3-yl)propanoyl)piperazin-1-yl)benzonitrile], < 50%.
For the compound `Cc1ccc(F)c2c(=O)[nH]c(CCC(=O)N3C4CCC3CN(c3ccc(F)cn3)C4)cc12` [Example 212, 8-fluoro-3-(3-(3-(5-fluoropyridin-2-yl)-3,8-diazabicyclo[3.2.1]octan-8-yl)-3-oxopropyl)-5-methylisoquinolin-1(2H)-one], the inhibition at 0.001 µM is < 50%.
On the same count and under the same terms, to `N#Cc1ccc(C2=CCN(CCCc3cc4ccc(F)cc4c(=O)[nH]3)CC2)nc1` [Example 50, 1′-(3-(7-fluoro-1-oxo-1,2-dihydroisoquinolin-3-yl)propyl)-1′,2′,3′,6′-tetrahydro-[2,4′-bipyridine]-5-carbonitrile] belongs < 50%; to `N#Cc1ccc(OC2CCN(C(=O)CCc3cc4cccc(F)c4c(=O)[nH]3)CC2)cc1` [Example 255, 4-((1-(3-(8-fluoro-1-oxo-1,2-dihydroisoquinolin-3-yl)propanoyl)piperidin-4-yl)oxy)benzonitrile], < 50%.
In the case of `N#Cc1ccc(NC2CCN(CCCc3cc4ncccc4c(=O)[nH]3)CC2)cc1` [Example 250, 4-((1-(3-(5-oxo-5,6-dihydro-1,6-naphthyridin-7-yl)propyl)piperidin-4-yl)amino)benzonitrile], the inhibition at 0.001 µM is < 50%.
Turning to `O=c1[nH]c(CCCN2C3CCC2CN(c2ccc(F)nc2)C3)cc2ncccc12` [Example 233, 7-(3-(3-(6-fluoropyridin-3-yl)-3,8-diazabicyclo[3.2.1]octan-8-yl)propyl)-1,6-naphthyridin-5(6H)-one], the inhibition at 0.001 µM is 50 to 80%.
The same measure, in the same setting: to `Cc1ccc(F)c2c(=O)[nH]c(CCC(=O)N3CCN(C(=O)C4CCCO4)CC3)cc12` (centres unmarked) [Example 191, 8-fluoro-5-methyl-3-(3-oxo-3-(4-(tetrahydrofuran-2-carbonyl)piperazin-1-yl)propyl)isoquinolin-1(2H)-one] belongs < 50%.
As to `N#Cc1ccc(N2CCN(CCCc3cc4ccc(F)cc4c(=O)[nH]3)CC2)cn1` [Example 10, 5-(4-(3-(7-fluoro-1-oxo-1,2-dihydroisoquinolin-3-yl)propyl)piperazin-1-yl)picolinonitrile], the inhibition at 0.001 µM was in the range of 50 to 80%.
Same read-out and setting: to `Cc1ccc(F)c2c(=O)[nH]c(CCC(=O)N3CC=C(c4ccccc4F)CC3)cc12` [Example 138, 8-fluoro-3-(3-(4-(2-fluorophenyl)-3,6-dihydropyridin-1(2H)-yl)-3-oxopropyl)-5-methylisoquinolin-1(2H)-one] belongs < 50%; to `N#Cc1ccc(N2CCN(CCCc3cc4ccc(F)cc4c(=O)[nH]3)CC2)cc1` [Example 8, 4-(4-(3-(7-fluoro-1-oxo-1,2-dihydroisoquinolin-3-yl)propyl)piperazin-1-yl)benzonitrile], 50 to 80%.
For the compound `Cc1ccc(F)c2c(=O)[nH]c(CCC(=O)N3CCN(c4ccc(F)c(C#N)c4)CC3)cc12` [Example 135, 2-fluoro-5-(4-(3-(8-fluoro-5-methyl-1-oxo-1,2-dihydroisoquinolin-3-yl)propanoyl)piperazin-1-yl)benzonitrile], the inhibition at 0.001 µM was < 50%.
On the same count and under the same terms, to `N#Cc1ccc(C2=CCN(CCCc3cc4ncccc4c(=O)[nH]3)CC2)cc1` [Example 239, 4-(1-(3-(5-oxo-5,6-dihydro-1,6-naphthyridin-7-yl)propyl)-1,2,3,6-tetrahydropyridin-4-yl)benzonitrile] belongs 50 to 80%; to `Cc1ccc(F)c2c(=O)[nH]c(CCC(=O)N3CCN(C(=O)C4CCC4)CC3)cc12` [Example 179, 3-(3-(4-(cyclobutanecarbonyl)piperazin-1-yl)-3-oxopropyl)-8-fluoro-5-methylisoquinolin-1(2H)-one], < 50%; to `Cc1cc(F)cc2c(=O)[nH]c(CCCN3CC=C(c4ccc(F)nc4)CC3)cc12` [Example 63, 7-fluoro-3-(3-(6-fluoro-3′,6′-dihydro-[3,4′-bipyridine]-1′(2′H)-yl)propyl)-5-methylisoquinolin-1(2H)-one], < 50%.
On the same count and under the same terms, to `N#Cc1ccc(F)c(N2CCN(C(=O)CCc3cc4ccc(F)cc4c(=O)[nH]3)CC2)c1` [Example 107, 4-fluoro-3-(4-(3-(7-fluoro-1-oxo-1,2-dihydroisoquinolin-3-yl)propanoyl)piperazin-1-yl)benzonitrile] belongs < 50%.
On the same count and under the same terms, to `Cc1cc(F)cc2c(=O)[nH]c(CCC(=O)N3CCN(c4cc(F)ccc4C#N)CC3)cc12` [Example 157, 4-fluoro-2-(4-(3-(7-fluoro-5-methyl-1-oxo-1,2-dihydroisoquinolin-3-yl)propanoyl)piperazin-1-yl)benzonitrile] belongs < 50%; to `O=C(CCc1cc2ccc(F)cc2c(=O)[nH]1)N1CC[C@H](c2ccc(F)cc2)C1` [Example 116, (R)-7-fluoro-3-(3-(3-(4-fluorophenyl)pyrrolidin-1-yl)-3-oxopropyl)isoquinolin-1(2H)-one], < 50%.

Still in this experiment, the particulars now being: PARP-1 enzyme activity.
Usually IC50 stands for the midpoint of a concentration-inhibition curve. Lower therefore signals inhibition by little substance. `Cc1ccc(F)c2c(=O)[nH]c(CCC(=O)N3CCN(C(=O)C4CC4)CC3)cc12` [Example 183, 3-(3-(4-(cyclopropanecarbonyl)piperazin-1-yl)-3-oxopropyl)-8-fluoro-5-methylisoquinolin-1(2H)-one]: the IC50 was 14.7 nM.
`N#Cc1ccc(C2=CCN(CCCc3cc4ccc(F)cc4c(=O)[nH]3)CC2)nc1` [Example 50, 1′-(3-(7-fluoro-1-oxo-1,2-dihydroisoquinolin-3-yl)propyl)-1′,2′,3′,6′-tetrahydro-[2,4′-bipyridine]-5-carbonitrile] displayed an IC50 of 1.88 nM.
On to `N#Cc1ccc(N2CCN(CCCc3cc4ccc(F)cc4c(=O)[nH]3)CC2)cc1` [Example 8, 4-(4-(3-(7-fluoro-1-oxo-1,2-dihydroisoquinolin-3-yl)propyl)piperazin-1-yl)benzonitrile], for which the IC50 turned out to be 0.72 nM.
